Measured values as given in the NIST ThermoML archive (doi:10.1021/acs.jced.9b00507).

Assay: xn = mol fraction of the nth substance listed
Details: 100 kPa, Liquid; for viscosity: Concentric cylinders viscometry; for mass density: Vibrating tube method

CCCCCCn1cc[n+](C)c1.O=[N+]([O-])[O-] [1-hexyl-3-methylimidazolium nitrate] + CCCCCCCCCO
Details	mass density [kg/m3]	viscosity [mPa·s]
293.15 K, x1 = 0.0819	856.1	15.74
293.15 K, x1 = 0.1609	882.8	22.23
293.15 K, x1 = 0.2386	908.3	30.27
293.15 K, x1 = 0.3483	942.9	48.53
293.15 K, x1 = 0.4392	970.5	71.12
293.15 K, x1 = 0.5588	1005.4	117.49
293.15 K, x1 = 0.6508	1031.3	177.42
293.15 K, x1 = 0.7394	1055.3	263.63
293.15 K, x1 = 0.8497	1083.9	413.05
293.15 K, x1 = 0.9456	1107.6	630.96
293.15 K, x1 = 1	1120.3	804.17
298.15 K, x1 = 0.0819	852.5	12.59
298.15 K, x1 = 0.1609	879.2	16.67
298.15 K, x1 = 0.2386	904.7	21.93
298.15 K, x1 = 0.3483	939.3	33.81
298.15 K, x1 = 0.4392	967	48.19
298.15 K, x1 = 0.5588	1001.9	79.43
298.15 K, x1 = 0.6508	1027.9	118.3
298.15 K, x1 = 0.7394	1052	175.79
298.15 K, x1 = 0.8497	1080.7	288.4
298.15 K, x1 = 0.9456	1104.5	439.6
298.15 K, x1 = 1	1117.5	545.25
303.15 K, x1 = 0.0819	849	10.19
303.15 K, x1 = 0.1609	875.5	13.18
303.15 K, x1 = 0.2386	901	16.79
303.15 K, x1 = 0.3483	935.6	24.27
303.15 K, x1 = 0.4392	963.3	33.11
303.15 K, x1 = 0.5588	998.3	51.88
303.15 K, x1 = 0.6508	1024.3	76.03
303.15 K, x1 = 0.7394	1048.4	113.24
303.15 K, x1 = 0.8497	1077.3	188.34
303.15 K, x1 = 0.9456	1101.2	294.59
303.15 K, x1 = 1	1114.3	369.14
308.15 K, x1 = 0.0819	845.5	8.41
308.15 K, x1 = 0.1609	872	10.05
308.15 K, x1 = 0.2386	897.4	12.25
308.15 K, x1 = 0.3483	932	16.94
308.15 K, x1 = 0.4392	959.7	22.08
308.15 K, x1 = 0.5588	994.7	32.81
308.15 K, x1 = 0.6508	1020.6	45.71
308.15 K, x1 = 0.7394	1044.8	68.08
308.15 K, x1 = 0.8497	1073.7	116.37
308.15 K, x1 = 0.9456	1097.8	192.31
308.15 K, x1 = 1	1111.1	257.59
313.15 K, x1 = 0.0819	841.9	6.7
313.15 K, x1 = 0.1609	868.3	7.87
313.15 K, x1 = 0.2386	893.7	9.06
313.15 K, x1 = 0.3483	928.3	11.04
313.15 K, x1 = 0.4392	956	13.27
313.15 K, x1 = 0.5588	991	18.92
313.15 K, x1 = 0.6508	1017	26.73
313.15 K, x1 = 0.7394	1041.2	41.3
313.15 K, x1 = 0.8497	1070.2	73.71
313.15 K, x1 = 0.9456	1094.4	136.37
313.15 K, x1 = 1	1107.8	185.67
318.15 K, x1 = 0.0819	838.3	5.28
318.15 K, x1 = 0.1609	864.7	5.78
318.15 K, x1 = 0.2386	890	6.35
318.15 K, x1 = 0.3483	924.6	7.36
318.15 K, x1 = 0.4392	952.3	8.61
318.15 K, x1 = 0.5588	987.4	11.46
318.15 K, x1 = 0.6508	1013.5	15.85
318.15 K, x1 = 0.7394	1037.8	25.39
318.15 K, x1 = 0.8497	1066.9	53.43
318.15 K, x1 = 0.9456	1091.2	101.71
318.15 K, x1 = 1	1104.7	140.18
323.15 K, x1 = 0.0819	834.7	4.15
323.15 K, x1 = 0.1609	861.1	4.25
323.15 K, x1 = 0.2386	886.4	4.41
323.15 K, x1 = 0.3483	921	4.84
323.15 K, x1 = 0.4392	948.6	5.33
323.15 K, x1 = 0.5588	983.8	6.84
323.15 K, x1 = 0.6508	1009.9	9.63
323.15 K, x1 = 0.7394	1034.3	16.2
323.15 K, x1 = 0.8497	1063.5	37.68
323.15 K, x1 = 0.9456	1088	78.73
323.15 K, x1 = 1	1101.6	110.94

CCCCCCn1cc[n+](C)c1.O=[N+]([O-])[O-] [1-hexyl-3-methylimidazolium nitrate] + CCCCCCCCO
Details	mass density [kg/m3]	viscosity [mPa·s]
293.15 K, x1 = 0.0806	856.1	15.49
293.15 K, x1 = 0.1591	885.1	23.39
293.15 K, x1 = 0.2392	913.2	34.36
293.15 K, x1 = 0.3493	949.6	55.85
293.15 K, x1 = 0.4396	977.6	83.56
293.15 K, x1 = 0.5621	1013.2	149.62
293.15 K, x1 = 0.649	1036.9	222.84
293.15 K, x1 = 0.7407	1060.6	331.13
293.15 K, x1 = 0.8495	1087	504.66
293.15 K, x1 = 0.9397	1107.4	677.63
293.15 K, x1 = 1	1120.3	804.17
298.15 K, x1 = 0.0806	852.6	11.3
298.15 K, x1 = 0.1591	881.4	15.96
298.15 K, x1 = 0.2392	909.5	22.23
298.15 K, x1 = 0.3493	946	34.83
298.15 K, x1 = 0.4396	974	51.05
298.15 K, x1 = 0.5621	1009.7	89.33
298.15 K, x1 = 0.649	1033.6	133.05
298.15 K, x1 = 0.7407	1057.3	205.44
298.15 K, x1 = 0.8495	1083.8	321.84
298.15 K, x1 = 0.9397	1104.4	446.63
298.15 K, x1 = 1	1117.5	545.25
303.15 K, x1 = 0.0806	848.9	8.53
303.15 K, x1 = 0.1591	877.7	11.46
303.15 K, x1 = 0.2392	905.8	15.38
303.15 K, x1 = 0.3493	942.3	23.23
303.15 K, x1 = 0.4396	970.3	33.11
303.15 K, x1 = 0.5621	1006.1	54.2
303.15 K, x1 = 0.649	1030	78.89
303.15 K, x1 = 0.7407	1053.8	122.74
303.15 K, x1 = 0.8495	1080.4	203.15
303.15 K, x1 = 0.9397	1101.1	292.37
303.15 K, x1 = 1	1114.3	369.14
308.15 K, x1 = 0.0806	845.3	6.7
308.15 K, x1 = 0.1591	874.1	8.47
308.15 K, x1 = 0.2392	902.1	10.57
308.15 K, x1 = 0.3493	938.6	14.52
308.15 K, x1 = 0.4396	966.7	19.63
308.15 K, x1 = 0.5621	1002.5	32.58
308.15 K, x1 = 0.649	1026.4	47.1
308.15 K, x1 = 0.7407	1050.3	73.28
308.15 K, x1 = 0.8495	1077	127.64
308.15 K, x1 = 0.9397	1097.8	197.38
308.15 K, x1 = 1	1111.1	257.59
313.15 K, x1 = 0.0806	841.7	5.41
313.15 K, x1 = 0.1591	870.4	6.35
313.15 K, x1 = 0.2392	898.4	7.59
313.15 K, x1 = 0.3493	934.8	10
313.15 K, x1 = 0.4396	963	12.88
313.15 K, x1 = 0.5621	998.8	19.77
313.15 K, x1 = 0.649	1022.7	28.31
313.15 K, x1 = 0.7407	1046.7	44.73
313.15 K, x1 = 0.8495	1073.5	81.32
313.15 K, x1 = 0.9397	1094.4	135.25
313.15 K, x1 = 1	1107.8	185.67
318.15 K, x1 = 0.0806	838	4.25
318.15 K, x1 = 0.1591	866.7	4.67
318.15 K, x1 = 0.2392	894.7	5.41
318.15 K, x1 = 0.3493	931.2	7.05
318.15 K, x1 = 0.4396	959.3	8.91
318.15 K, x1 = 0.5621	995.2	13.87
318.15 K, x1 = 0.649	1019.2	19.95
318.15 K, x1 = 0.7407	1043.2	31.92
318.15 K, x1 = 0.8495	1070.1	56.98
318.15 K, x1 = 0.9397	1091.1	99.97
318.15 K, x1 = 1	1104.7	140.18
323.15 K, x1 = 0.0806	834.4	3.56
323.15 K, x1 = 0.1591	863	3.84
323.15 K, x1 = 0.2392	891	4.28
323.15 K, x1 = 0.3493	927.5	5.25
323.15 K, x1 = 0.4396	955.7	6.46
323.15 K, x1 = 0.5621	991.6	9.46
323.15 K, x1 = 0.649	1015.7	13.58
323.15 K, x1 = 0.7407	1039.8	22.08
323.15 K, x1 = 0.8495	1066.8	42.16
323.15 K, x1 = 0.9397	1087.9	76.46
323.15 K, x1 = 1	1101.6	110.94
